Activity calls are given as the source filed them. The rule behind the calls is not given here.
Columns and labels:
[1] = molecular target: T1, Dipeptidyl peptidase 1 (Mus musculus) (UniProt P97821); assay: Inhibition of Cathepsin C in C57BL/6 mouse Bone marrow cells assessed as reduction of NSPs stability by measuring stability of protease 3 at 1 uM treated for 6 hrs by Western blotting analysis; assay type: cell-based; design: scale not given: the % may be the effect or the level left; settings: Bone marrow cell
T1 sequence (whole entry): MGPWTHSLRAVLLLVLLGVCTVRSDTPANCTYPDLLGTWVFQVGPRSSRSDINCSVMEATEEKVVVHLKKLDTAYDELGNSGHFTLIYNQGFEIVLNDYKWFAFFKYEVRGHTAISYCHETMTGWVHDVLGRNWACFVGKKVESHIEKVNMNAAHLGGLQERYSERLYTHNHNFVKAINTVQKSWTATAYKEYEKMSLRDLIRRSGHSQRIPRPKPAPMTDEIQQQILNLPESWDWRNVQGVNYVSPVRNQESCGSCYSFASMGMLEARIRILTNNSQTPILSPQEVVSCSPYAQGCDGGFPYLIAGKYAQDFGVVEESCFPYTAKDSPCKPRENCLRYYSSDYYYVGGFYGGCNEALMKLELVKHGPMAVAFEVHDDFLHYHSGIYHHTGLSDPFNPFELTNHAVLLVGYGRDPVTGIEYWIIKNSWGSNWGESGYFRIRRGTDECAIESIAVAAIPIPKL

Mus musculus [2] = assay: Anti-inflammatory activity against po dosed LPS-induced ALI C57BL/6 mouse model assessed as decrease in TNF-alpha level in lungs treated 1 hr prior to LPS challenge and measured after 48 hrs by ELISA; assay type: functional, organism-based; settings: dose 2-50 mg/kg, time 49.0 hrs, DDE = dose-dependent effect
[3] = molecular target: T1, Dipeptidyl peptidase 1 (Mus musculus); assay: Inhibition of Cathepsin C in C57BL/6 mouse Bone marrow cells assessed as reduction of NSPs stability by measuring stability of cathepsin G at 1 uM treated for 48 hrs by Western blotting analysis; assay type: cell-based; design: scale not given: the % may be the effect or the level left; settings: Bone marrow cell
[4] = Acute toxicity in ICR mouse assessed as body weight loss at 1500 mg/kg, po administered as single dose and measured for 7 days; assay type: organism-based; settings: in vivo, time 7 day
[5] = molecular target: T1, Dipeptidyl peptidase 1 (Mus musculus); assay: Inhibition of Cathepsin C in C57BL/6 mouse Bone marrow cells assessed as reduction of NSPs stability by measuring stability of Cat G at 1 uM treated for 6 hrs by Western blotting analysis; assay type: cell-based; design: scale not given: the % may be the effect or the level left; settings: Bone marrow cell
[6] = MRT in Sprague-Dawley rat at 10 mg/kg, po measured after 24 hrs by LC-MS/MS analysis; assay type: ADME, organism-based; settings: in vivo
Mus musculus [7] = assay: Anti-inflammatory activity against po dosed LPS-induced ALI C57BL/6 mouse model assessed as decrease in GM-CSF level in lungs treated 1 hr prior to LPS challenge and measured after 48 hrs by ELISA; assay type: functional, organism-based; settings: dose 2-50 mg/kg, time 49.0 hrs, DDE = dose-dependent effect
Dipeptidyl peptidase 1 [8] = molecular target: T2, Dipeptidyl peptidase 1 (Homo sapiens, UniProt P53634); assay: Inhibition of human recombinant Cathepsin C using H-Gly-Arg-AMC as substrate pretreated for 30 mins followed by substrate addition and incubated for 60 mins by microplate reader assay
T2 sequence (P53634 25-134 limits assumed): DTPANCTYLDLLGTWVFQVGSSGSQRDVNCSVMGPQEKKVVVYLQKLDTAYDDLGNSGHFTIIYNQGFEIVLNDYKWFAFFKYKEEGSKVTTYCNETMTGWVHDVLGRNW
T2 sequence (P53634 231-394 limits assumed): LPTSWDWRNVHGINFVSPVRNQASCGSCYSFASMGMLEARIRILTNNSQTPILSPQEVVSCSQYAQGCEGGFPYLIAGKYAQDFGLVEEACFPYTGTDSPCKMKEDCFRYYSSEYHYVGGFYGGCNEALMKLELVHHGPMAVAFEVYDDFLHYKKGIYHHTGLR
T2 sequence (P53634 395-463 limits assumed): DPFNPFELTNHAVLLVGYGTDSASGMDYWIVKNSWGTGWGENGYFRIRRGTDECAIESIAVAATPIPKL

Mus musculus [9] = assay: Anti-inflammatory activity against LPS-induced ALI C57BL/6 mouse model assessed as decrease in pulmonary edema by measuring decrease in lung wet/dry ratio at 2 to 50 mg/kg, po treated 1 hr prior to LPS challenge and measured after 48 hrs; assay type: functional, organism-based; settings: dose 2-50 mg/kg, time 49.0 hrs
Mus musculus [10] = assay: Anti-inflammatory activity against po dosed LPS-induced ALI C57BL/6 mouse model assessed as decrease in histopatological changes of lungs treated 1 hr prior to LPS challenge and measured after 48 hrs by H and E staining based analysis; assay type: functional, organism-based; settings: dose 2-50 mg/kg, time 49.0 hrs, DDE = dose-dependent effect
Mus musculus [11] = assay: In vivo inhibition of cathepsin C in blood of po dosed LPS-induced ALI C57BL/6 mouse model treated 1 hr prior to LPS challenge and measured after 48 hrs; assay type: functional, organism-based; settings: dose 2-50 mg/kg, time 49.0 hrs, DDE = dose-dependent effect
[12] = molecular target: T1, Dipeptidyl peptidase 1 (Mus musculus); assay: Inhibition of Cathepsin C in C57BL/6 mouse Bone marrow cells assessed as reduction of NSPs stability by measuring stability of cathepsin G at 1 uM treated for 12 hrs by Western blotting analysis; assay type: cell-based; design: scale not given: the % may be the effect or the level left; settings: Bone marrow cell
[13] = Acute toxicity in ICR mouse assessed as pathological changes of spleen at 1500 mg/kg, po administered as single dose measured after 7 days by H and E staining based assay; assay type: organism-based; settings: in vivo, time 7 day
[14] = AUC(last) in Sprague-Dawley rat at 10 mg/kg, po measured after 24 hrs by LC-MS/MS analysis; assay type: ADME, organism-based; design: dose 10 mg/kg, time 24 hrs, route po; settings: in vivo
Mus musculus [15] = assay: In vivo inhibition of cathepsin C in bone marrow of po dosed LPS-induced ALI C57BL/6 mouse model treated 1 hr prior to LPS challenge and measured after 48 hrs; assay type: functional, organism-based; settings: dose 2-50 mg/kg, time 49.0 hrs, DDE = dose-dependent effect
[16] = Acute toxicity in ICR mouse assessed as pathological changes of lungs at 1500 mg/kg, po administered as single dose measured after 7 days by H and E staining based assay; assay type: organism-based; settings: in vivo, time 7 day
[17] = Acute toxicity in ICR mouse assessed as pathological changes of kidney at 1500 mg/kg, po administered as single dose measured after 7 days by H and E staining based assay; assay type: organism-based; settings: in vivo, time 7 day
[18] = molecular target: T1, Dipeptidyl peptidase 1 (Mus musculus); assay: Inhibition of Cathepsin C in C57BL/6 mouse Bone marrow cells assessed as reduction of NSPs stability by measuring stability of neutrophil elastase at 1 uM treated for 6 hrs by Western blotting analysis; assay type: cell-based; design: scale not given: the % may be the effect or the level left; settings: Bone marrow cell
[19] = Acute toxicity in ICR mouse assessed as animal behavioural changes at 1500 mg/kg, po administered as single dose and measured for 7 days; assay type: organism-based; settings: in vivo, time 7 day
[20] = Oral bioavailability in Sprague-Dawley rat at 10 mg/kg measured after 24 hrs by LC-MS/MS analysis; assay type: ADME, organism-based; settings: in vivo
Mus musculus [21] = assay: In vivo inhibition of cathepsin C in po dosed LPS-induced ALI C57BL/6 mouse model assessed as downregulation of PR3 activity in bone marrow treated 1 hr prior to LPS challenge and measured after 48 hrs; assay type: functional, organism-based; settings: dose 2-50 mg/kg, time 49.0 hrs, DDE = dose-dependent effect
[22] = molecular target: T1, Dipeptidyl peptidase 1 (Mus musculus); assay: Inhibition of Cathepsin C in C57BL/6 mouse Bone marrow cells assessed as reduction of NSPs stability by measuring stability of protease 3 at 1 uM treated for 48 hrs by Western blotting analysis; assay type: cell-based; design: scale not given: the % may be the effect or the level left; settings: Bone marrow cell
[23] = MRT in Sprague-Dawley rat at 2 mg/kg, iv measured after 24 hrs by LC-MS/MS analysis; assay type: ADME, organism-based; settings: in vivo
Dipeptidyl peptidase 1 [24] = molecular target: T2, Dipeptidyl peptidase 1; assay: Binding affinity to Cathepsin C in human U-937 cells assessed as increase in thermal stability at 10 uM measured from 46 to 52 degC after 4 hrs by cellular thermal shift assay; assay type: cell-based
[25] = Cmax in Sprague-Dawley rat at 10 mg/kg, po measured after 24 hrs by LC-MS/MS analysis; assay type: ADME, organism-based; design: dose 10 mg/kg, time 24 hrs, route po; settings: in vivo
[26] = molecular target: T1, Dipeptidyl peptidase 1 (Mus musculus); assay: Inhibition of Cathepsin C in C57BL/6 mouse Bone marrow cells assessed as reduction of NSPs stability by measuring stability of neutrophil elastase at 1 uM treated for 48 hrs by Western blotting analysis; assay type: cell-based; design: scale not given: the % may be the effect or the level left; settings: Bone marrow cell
Mus musculus [27] = assay: In vivo inhibition of cathepsin C in po dosed LPS-induced ALI C57BL/6 mouse model assessed as downregulation of PR3 activity in blood treated 1 hr prior to LPS challenge and measured after 48 hrs; assay type: functional, organism-based; settings: dose 2-50 mg/kg, time 49.0 hrs, DDE = dose-dependent effect
Mus musculus [28] = assay: Anti-inflammatory activity against po dosed LPS-induced ALI C57BL/6 mouse model assessed as decrease in IL-6 level in serum treated 1 hr prior to LPS challenge and measured after 48 hrs by ELISA; assay type: functional, organism-based; settings: dose 2-50 mg/kg, time 49.0 hrs, DDE = dose-dependent effect
[29] = Tmax in Sprague-Dawley rat at 10 mg/kg, po measured after 24 hrs by LC-MS/MS analysis; assay type: ADME, organism-based; settings: in vivo
[30] = AUC(0 to infinity) in Sprague-Dawley rat at 2 mg/kg, iv by LC-MS/MS analysis; assay type: ADME, organism-based; design: time infinity, dose 2 mg/kg, route iv; settings: in vivo

CC(=O)Nc1cccc(Nc2nc(Nc3ccc(-c4ccsc4)cn3)ncc2Cl)c1
Activity [1]: 95.6% | Activity (Mus musculus [2]): Dde | Activity [3]: 50.1% | Activity [4]: Non-Toxic | Activity [5]: 93.4% | MRT [6]: 2.35 h | Activity (Mus musculus [7]): Dde | IC50 (Dipeptidyl peptidase 1 [8]): 0.0599 µM | Activity (Mus musculus [9]): Active | Activity (Mus musculus [10]): Dde | inhibition (Mus musculus [11]): Dde | Activity [12]: 81.1% | Activity [13]: Non-Toxic | AUC(0-t) at 24 h [14]: 511 ng·h/mL | inhibition (Mus musculus [15]): Dde | Activity [16]: Non-Toxic | Activity [17]: Non-Toxic | Activity [18]: 93.5% | Activity [19]: Non-Toxic | F [20]: 42.07% | inhibition (Mus musculus [21]): Dde | Activity [22]: 46.8% | MRT [23]: 3.38 h | Activity (Dipeptidyl peptidase 1 [24]): Active | Cmax [25]: 177 ng/mL | Activity [26]: 46.1% | inhibition (Mus musculus [27]): Dde | Activity (Mus musculus [28]): Dde | Tmax [29]: 0.77 h | AUC [30]: 1124.78 ng·h/mL

— ChEMBL document CHEMBL5154871, “Non-peptidyl non-covalent cathepsin C inhibitoEEr bearing a unique thiophene-substituted pyridine: Design, structure-activity relationship and anti-inflammatory activity in vivo” (Eur J Med Chem, 2022)
